Reference: patent publication US20060079566A1, “PDK-1/Akt signaling inhibitors” (priority 2003, published 2006)

Columns and labels:
SF-268 = experiment: NCI DTP screen (SRB), CNS Cancer; format: cell-based
Procedure: (§1) Screening of compounds 70 and 71 against several cancer cell lines The human tumor cell lines of the cancer screening panel are grown in RPMI 1640 medium containing 5% fetal bovine serum and 2 mM L-glutamine. For a typical screening experiment, cells are inoculated into 96 well microtiter plates in 100 μL at plating densities ranging from 5,000 to 40,000 cells/well depending on the doubling time of individual cell lines. After cell inoculation, the microtiter plates are incubated at 37° C., 5% CO2, 95% air and 100% relative humidity for 24 h prior to addition of experimental drugs.
(§2) After 24 h, two plates of each cell line are fixed in situ with TCA, to represent a measurement of the cell population for each cell line at the time of drug addition (Tz). Experimental drugs are solubilized in dimethyl sulfoxide at 400-fold the desired final maximum test concentration and stored frozen prior to use. At the time of drug addition, an aliquot of frozen concentrate is thawed and diluted to twice the desired final maximum test concentration with complete medium containing 50 μg/ml gentamicin. Additional four, 10-fold or ½ log serial dilutions are made to provide a total of five drug concentrations plus control. Aliquots of 100 μl of these different drug dilutions are added to the appropriate microtiter wells already containing 100 μl of medium, resulting in the required final drug concentrations.
(§3) Following drug addition, the plates are incubated for an additional 48 h at 37° C., 5% CO2, 95% air, and 100% relative humidity. For adherent cells, the assay is terminated by the addition of cold TCA. Cells are fixed in situ by the gentle addition of 50 μl of cold 50% (w/v) TCA (final concentration, 10% TCA) and incubated for 60 minutes at 4° C. The supernatant is discarded, and the plates are washed five times with tap water and air dried. Sulforhodamine B (SRB) solution (100 μl) at 0.4% (w/v) in 1% acetic acid is added to each well, and plates are incubated for 10 minutes at room temperature. After staining, unbound dye is removed by washing five times with 1% acetic acid and the plates are air dried. Bound stain is subsequently solubilized with 10 mM trizma base, and the absorbance is read on an automated plate reader at a wavelength of 515 nm. For suspension cells, the methodology is the same except that the assay is terminated by fixing settled cells at the bottom of the wells by gently adding 50 μl of 80% TCA (final concentration, 16% TCA). Using the seven absorbance measurements [time zero, (Tz), control growth, (C), and test growth in the presence of drug at the five concentration levels (Ti)], the percentage growth is calculated at each of the drug concentrations levels. Percentage growth inhibition is calculated as: [(Ti−Tz)/(C−Tz)]×100 for concentrations for which Ti>/=Tz [(Ti−Tz)/Tz]×100 for concentrations for which Ti<Tz
(§4) Three dose response parameters are calculated for each experimental agent. […] The drug concentration resulting in total growth inhibition (TGI) is calculated from Ti=Tz. […] Values are calculated for each of these three parameters if the level of activity is reached; however, if the effect is not reached or is exceeded, the value for that parameter is expressed as greater or less than the maximum or minimum concentration tested.

SF-295 = experiment: NCI DTP screen (SRB), CNS Cancer; format: cell-based; conditions: Homo sapiens
Procedure: as §1, §2, §3, §4

SNB-19 = experiment: NCI DTP screen (SRB), CNS Cancer; format: cell-based; conditions: Homo sapiens
Procedure: as §1, §2, §3, §4

[1] = Preliminary animal studies, daily oral administration; conditions: data not shown

Question: What does the source list for `NCC(=O)Nc1ccc(-n2nc(C(F)(F)F)cc2-c2ccc3c(ccc4ccccc43)c2)cc1` [Compound 70, 2-Amino-N-{4-[5-(2-phenanthrenyl)-3-(trifluoromethyl)-1H-pyrazol-1-yl]-phenyl}-acetamide]?
Answer: GI50 (SF-268; Homo sapiens, SF-268): 1110 nM; CC50 (SF-268; Homo sapiens, SF-268, read-out: LC50): > 100000 nM; Percent Growth (SF-268; SF-268, Log10 Concentration −4.0): −26%; GI50 (SF-295; SF-295): 1280 nM; CC50 (SF-295; SF-295, read-out: LC50): > 100000 nM; GI50 (SNB-19): 1180 nM; toxicity to the animals ([1]; daily oral administration for one month): little toxicity; oral absorption ([1]; preliminary animal studies): can be orally absorbed
